In PubChem BioAssay AID652266 (Broad Institute, 2013):
The source made the active and inactive calls. No rule for the calls is given here.

Biological target: Protein disulfide-isomerase A3 (Homo sapiens) (UniProt P30101)
Assay: inhibitors of thiol isomerase ERp57, dose response, selectivity assay, biochemical, dry powder samples, plate reader (AID 652266)
Settings: purified ERp57 enzyme

Sequence of Protein disulfide-isomerase A3 (Homo sapiens) (P30101 whole entry, looked up): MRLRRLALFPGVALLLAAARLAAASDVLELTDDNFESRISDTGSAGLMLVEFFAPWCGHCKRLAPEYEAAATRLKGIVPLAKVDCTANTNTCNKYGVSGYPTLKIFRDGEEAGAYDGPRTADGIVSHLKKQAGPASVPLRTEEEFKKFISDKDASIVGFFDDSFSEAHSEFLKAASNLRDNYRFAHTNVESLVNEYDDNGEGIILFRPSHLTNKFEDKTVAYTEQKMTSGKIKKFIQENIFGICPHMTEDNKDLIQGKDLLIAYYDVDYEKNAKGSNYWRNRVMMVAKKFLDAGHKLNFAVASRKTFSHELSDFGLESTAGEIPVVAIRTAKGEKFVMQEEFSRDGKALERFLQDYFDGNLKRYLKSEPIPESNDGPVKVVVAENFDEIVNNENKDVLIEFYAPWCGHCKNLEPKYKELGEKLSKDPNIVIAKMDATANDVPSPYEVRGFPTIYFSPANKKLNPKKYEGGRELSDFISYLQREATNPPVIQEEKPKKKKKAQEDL

SMILES | AC50
C/C1=C\[C@@H](O)C(C)(C)CCCC2(C)OC2C[C@@H]1OC(=O)c1ccc(O)cc1 (some centres not stated) | > 30 µM (inactive)
CCOC(=O)C1(CCOc2ccccc2)CCN(Cc2ccc(O)c(Cl)c2)CC1 | > 30 µM (inactive)
O=C(Nc1ccccc1)C1(CCOc2ccccc2)CCN(Cc2ccc(O)c(Cl)c2)CC1 | > 30 µM (inactive)
CCN(C)C(=O)C1(CCOc2ccccc2)CCN(Cc2ccc(O)c(Cl)c2)CC1 | > 30 µM (inactive)
O=C(NC1CCCC1)C1(CCOc2ccccc2)CCN(Cc2ccc(O)c(Cl)c2)CC1 | > 30 µM (inactive)

Now from value to molecule:

AC50 | SMILES
> 30 µM (inactive) | CC(C)OC(=O)C1(CCOc2ccccc2)CCN(Cc2ccc(O)c(Cl)c2)CC1
> 30 µM (inactive) | C/C1=C\C[C@H](OC(=O)c2ccc(O)cc2)/C(C)=C/[C@@H](O)C(C)(C)CCC1
> 30 µM (inactive) | CC(C)(C)OC(=O)C1(CCOc2ccccc2)CCN(Cc2ccc(O)c(Cl)c2)CC1
> 30 µM (inactive) | CCOC(=O)C1(CCOc2ccccc2)CCN(C(=O)c2ccc(O)c(Cl)c2)CC1
> 30 µM (inactive) | CCOC(=O)C1(CCOc2ccccc2)CCN(Cc2ccc(O)cc2)CC1
> 30 µM (inactive) | CCOC(=O)c1c(CN2CCN(CCO)CC2)n(-c2ccccc2)c2cc(Br)c(O)cc12
> 30 µM (inactive) | CCOC(=O)C1(CCOc2ccccc2)CCN(Cc2ccc(OC)c(Cl)c2)CC1
